Source: US11286268B1, “EIF4E-inhibiting compounds and methods” (EFFECTOR THERAPEUTICS, INC., priority 2019, dated 2022)
Where two headings read alike, the source gives them in different places.

Biological target: recombinant eIF4E (Homo sapiens (Human), UniProt P06730)
Assay: Fluorescence polarization competition assay for eIF4E binding potency
Protocol: Compounds were screened for eIF4E binding potency using a fluorescence polarization competition assay. All binding reactions were performed in fluorescence polarization buffer (FPB) containing 20 mM Tris pH 7.5, 100 mM NaCl, 1 mM DTT, and 0.02% Tween-20. Final binding reactions contained 75 nM recombinant eIF4E (Beryllium, custom order), 20 nM EDA-m^7GDP-ATTO-550 (Jena Bioscience, NU-827-550) and varying concentrations of the inhibitory compound of interest. Final DMSO concentration in each reaction was 1%.
eIF4E protein was pre-incubated with EDA-m^7GDP-ATTO-550 in FPB at 2× concentrations for 5 minutes prior to the addition of compounds. Compounds (100×) were prepared using 3-fold serial dilutions in 100% DMSO, and subsequently diluted 1:50 in FPB to produce 2× stocks. 50 μl of 2× eIF4E/EDA-m^7GDP-ATTO-550 were transferred to the wells of a 96-well half-area black flat bottom polystyrene plate. 50 μl of 2× test compound were added, and binding reactions were allowed to equilibrate for 30 minutes at room temperature while protected from light. The fluorescent polarization signal was detected using a Victor 2 multi-label counter (Perkin Elmer) and the concentration necessary to achieve inhibition of eIF4E/EDA-m^7GDP-ATTO-550 binding by 50% (IC50) was calculated using data from an 8-point compound dilution series.
In Table 4A, IC50 values of less than 0.05 μM are labelled as “+++”, from 1 to 0.05 μM are labelled as “++”, and greater than 1 μM are labelled as “+”. ND=not determined.

[1] = inhibition of eIF4E/EDA-m7GDP-ATTO-550 binding, calculated IC50 values, Table 4B, read-out: IC50
[2] = fluorescence polarization competition, 75 nM recombinant eIF4E, 20 nM EDA-m7GDP-ATTO-550, IC50 class, read-out: elF4E FP
[3] = inhibition of eIF4E/EDA-m7GDP-ATTO-550 binding by 50%, Table 4B calculated values, read-out: IC50

Chain of recombinant eIF4E (P06730 whole entry): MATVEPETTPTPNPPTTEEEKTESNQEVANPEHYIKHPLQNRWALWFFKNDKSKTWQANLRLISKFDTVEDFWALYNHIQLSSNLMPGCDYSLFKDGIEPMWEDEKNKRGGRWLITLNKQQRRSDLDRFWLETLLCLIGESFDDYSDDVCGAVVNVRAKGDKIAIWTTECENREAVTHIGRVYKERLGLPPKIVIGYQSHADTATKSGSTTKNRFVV

SMILES | IC50 [1] [nM] | IC50 [2] [nM] | IC50 [3] [nM]
Cc1nc2cnc(N3CCN(C)C4CC43)c(C#N)c2c(=O)n1CCOc1ccc(Cl)cc1-c1cccc2c(C(=O)O)csc12 (centres unmarked) [compound 2020] | 33 | – | –
Cc1nc2c(Cl)cc(Cl)c(C#N)c2c(=O)n1CCOc1ccc(Cl)cc1-c1ccnc2c(C(=O)O)csc12 [compound 209] | – | < 50 | 47
Cc1cc(-c2cc(Cl)ccc2OCCn2c(C)nc3cc(S(C)(=O)=O)c(N4CCN(C)CC4)c(C#N)c3c2=O)c2scc(C(=O)O)c2n1 [compound 1295] | 13.4 | – | –
Cc1cc(-c2cc(Cl)ccc2OCCn2c(C)nc3cc(CN(C)C)c(C)c(C#N)c3c2=O)c2scc(C(=O)O)c2n1 [compound 650] | – | < 50 | 28.3
CCN(c1ncc2nc(C)n(CC#Cc3ccc(Cl)cc3-c3ccnc4c(C(=O)NS(=O)(=O)CC)csc34)c(=O)c2c1C#N)C1CCN(C2COC2)CC1 [compound 1733] | 8.11 | – | –
Cc1nc2cnc(N(C)C3CCN(CC(F)(F)F)CC3)c(C#N)c2c(=O)n1CC#Cc1ccc(Cl)cc1-c1ccnc2c(C(=O)NS(=O)(=O)c3ccc(F)cc3F)csc12 [compound 1550] | 22.9 | – | –
Cc1cc(-c2cc(Cl)ccc2OCCn2c(C)nc3c(C)nc(-c4ccc(C(F)(F)F)cc4)c(C#N)c3c2=O)c2scc(C(=O)O)c2n1 [compound 926] | – | < 50 | 18.3
Cc1nc2cc(C(F)(F)F)cc(C#N)c2c(=O)n1CCOc1ccc(Cl)cc1-c1ccnc2c(C(=O)O)csc12 [Compound 272] | – | < 50 | 22.9
CC(=O)c1csc2c(-c3cc(Cl)ccc3C#CCn3c(C)nc4cnc(N(C)[C@H]5C[C@H]6CC[C@@H](C5)N6CC(F)F)c(C#N)c4c3=O)ccnc12 [compound 1406] | 26.6 | – | –
Cc1cc(-c2cc(Cl)ccc2OCCn2c(C)nc3cc(C(F)(F)F)c(-c4cncc(C)c4C)c(C#N)c3c2=O)c2scc(C(=O)O)c2n1 [compound 903] | – | < 50 | 11.2
Cc1c(CCOc2ccc(Cl)cc2-c2ccnc3c(C(=O)O)csc23)c(=O)c2c(C#N)c(Cl)c(C(F)(F)F)cc2n1C [compound 361] | – | 50 to 1000 | 68.4
Cc1cc(-c2cc(Cl)ccc2OCCn2c(C)nc3cc(C(F)(F)F)c(N4CCN(C5COC5)CC4)c(C#N)c3c2=O)c2scc(C(=O)O)c2n1 [compound 1242] | 8.85 | < 50 | –
COC(=O)c1csc2c(-c3cc(Cl)ccc3C#CCn3c(C)nc4cnc(N5CCN(CC(F)F)CC5)c(C#N)c4c3=O)ccnc12 [compound 1404] | 482 | – | –
O=C(O)c1cccc(-c2cc(Cl)ccc2OCCn2cnc3cnccc3c2=O)c1 [compound 1992] | 490 | – | –
Cc1nc2cnc(N(C)C3CCN(CC(C)(F)F)CC3)c(C(N)=O)c2c(=O)n1CC#Cc1ccc(Cl)cc1-c1ccnc2c(C(=O)OC(C)(C)C)csc12 [compound 1960] | 43200 | – | –
CO[C@H]1C[C@@H](c2ncc3nc(C)n(CCOc4ccc(Cl)cc4-c4cc(C)nc5c(C(=O)O)csc45)c(=O)c3c2C#N)C1 [compound 1152] | – | < 50 | 3.8
CCc1cc(-c2cc(Cl)ccc2OCCn2c(C)nc3cnc(N4CCN(C)C5CC54)c(C#N)c3c2=O)c2scc(C(=O)O)c2n1 (centres unmarked) [compound 1219] | 3.99 | < 50 | –
Cc1cc(-c2cc(Cl)ccc2OCCn2c(C)nc3cc(CCCN(C)C)c(Cl)c(C#N)c3c2=O)c2scc(C(=O)O)c2n1 [compound 606] | – | < 50 | 4.12
Cc1cc(-c2cc(Cl)ccc2OCCn2c(C)nc3cnc(-c4ccc(Cl)cc4)c(C#N)c3c2=O)c2scc(C(=O)O)c2n1 [compound 949] | – | < 50 | 37.3
Cc1cc(-c2cc(Cl)ccc2OCCn2c(C)nc3cnc(N4[C@@H]5CC[C@H]4CN(C)C5)c(C#N)c3c2=O)c2sc(C)c(C(=O)O)c2n1 [compound 1092] | – | < 50 | 42.7
Cc1cc(-c2cc(Cl)ccc2OCCn2c(C)nc3cnc(C(C)C)c(C#N)c3c2=O)c2scc(C(=O)O)c2n1 [compound 432] | – | < 50 | 25.8
Cc1cc2cc(C(F)(F)F)cc(C#N)c2c(O)c1CCOc1ccc(Cl)cc1-c1ccnc2c(C(=O)O)csc12 [compound 1976] | 1850 | – | –
Cc1cc(-c2cc(Cl)ccc2OCCn2c(C)nc3cncc(C#N)c3c2=O)c2scc(C(=O)O)c2n1 [compound 597] | – | < 50 | 46.8
CCc1ncc2nc(C)n(CCOc3ccc(Cl)cc3-c3ccnc4c(C(=O)O)csc34)c(=O)c2c1C#N [compound 813] | – | < 50 | 4.04

SMILES | IC50 [1] [nM] | IC50 [2] [nM] | IC50 [3] [nM]
Cc1nc2cc(C#N)c(F)c(C#N)c2c(=O)n1CCOc1ccc(Cl)cc1-c1ccnc2c(C(=O)O)csc12 [compound 240] | – | < 50 | 9.78
Cc1nc2cnc(N3CC4(CN(CC(F)(F)F)C4)C3)c(C#N)c2c(=O)n1CCOc1ccc(Cl)cc1-c1ccnc2c(C(=O)O)csc12 [compound 840] | – | < 50 | 10.4
Cc1nc2cc(C(F)(F)Cl)cc(C#N)c2c(=O)n1CCOc1ccc(Cl)cc1-c1ccnc2c(C(=O)O)csc12 [compound 264] | – | < 50 | 24.6
Cc1nc2c(C(F)(F)F)ncc(C#N)c2c(=O)n1CCOc1ccc(Cl)cc1-c1cccc(C(=O)O)c1 [compound 38] | – | 50 to 1000 | 55.5
Cc1nc2cc(C(F)(F)F)cc(C#N)c2c(=O)n1CCOc1ccc(Cl)cc1-c1cc(CO)nc2c(C(=O)O)csc12 [compound 484] | – | < 50 | 11.6
Cc1nc2cnc(N3CCN(C4(CF)CC4)CC3)c(C#N)c2c(=O)n1CCOc1ccc(Cl)cc1-c1ccnc2c(C(=O)O)csc12 [compound 1336] | 13 | – | –
Cc1cc(-c2cc(Cl)ccc2OCCn2c(C)nc3cc(C(F)(F)F)c(Br)c(C#N)c3c2=O)c2scc(C(=O)O)c2n1 [compound 876] | – | 50 to 1000 | 73.3
Cc1nc2cc(C(F)(F)F)cc(C#N)c2c(=O)n1CCOc1ccc(Cl)cc1-c1ccc(C(=O)O)c(C(=O)O)c1 [compound 158] | – | < 50 | 48.3
Cc1nc2cc(CN(C)C)c(OC(F)F)c(C#N)c2c(=O)n1CC#Cc1ccc(Cl)cc1-c1ccnc2c(C(=O)O)csc12 [compound 626] | – | < 50 | 10.4
Cc1ccc(-c2c(C(F)(F)F)cc3nc(C)n(CCOc4ccc(Cl)cc4-c4cc(C)nc5c(C(=O)O)csc45)c(=O)c3c2C#N)nn1 [compound 967] | – | < 50 | 12.2
Cc1nc2cnc(/C=C/CN(C)C)c(C#N)c2c(=O)n1CC#Cc1ccc(Cl)cc1-c1ccnc2c(C(=O)O)csc12 [compound 1498] | 29.1 | – | –
Cc1nc2cncc(C#N)c2c(=O)n1CCOc1ccc(Cl)cc1-c1ccnc2c(C(=O)O)csc12 [compound 140] | – | 50 to 1000 | 50
Cc1cc(-c2cc(Cl)ccc2OCCn2c(C)nc3cnc(C4CC(F)(F)C4)c(C#N)c3c2=O)c2scc(C(=O)O)c2n1 [compound 928] | – | < 50 | 38.7
COc1c(C)n(CCOc2ccc(Cl)cc2-c2ccnc3c(C(=O)O)csc23)c(=O)c2c(C#N)cc(C(F)(F)F)cc12 [compound 309] | – | 50 to 1000 | 52.5
Cc1nc2cc(C(F)(F)F)cc(C#N)c2c(=O)n1CCOc1ccc(Cl)cc1-c1csc2c(C(=O)O)cccc12 [compound 301] | – | 50 to 1000 | 57.6
Cc1ccc(-c2nc(C)c3nc(C)n(CCOc4ccc(Cl)cc4-c4cc(C)nc5c(C(=O)O)csc45)c(=O)c3c2C#N)cc1 [compound 477] | – | < 50 | –
Cc1nc2cc(C(F)(F)F)c(CC3CN(CCF)C3)c(C#N)c2c(=O)n1CCOc1ccc(Cl)cc1-c1ccnc2c(C(=O)O)csc12 [compound 321] | – | < 50 | 4.89
Cc1cc(-c2cc(Cl)ccc2OCCn2c(C)nc3cc(Cl)c(O)c(C#N)c3c2=O)c2scc(C(=O)O)c2n1 [compound 695] | – | < 50 | 1.05
Cc1nc2cc(C(F)(F)F)cc(C#N)c2c(=O)n1CCOc1ccc(Cl)cc1-c1cncc(-c2nn[nH]n2)c1 [compound 660] | – | 50 to 1000 | 258
Cc1cc(-c2cc(Cl)ccc2OCCn2c(C)nc3cc(OC(F)F)c(F)c(C#N)c3c2=O)c2scc(C(=O)O)c2n1 [compound 585] | – | < 50 | 29.6
Cc1cc(-c2cc(Cl)ccc2OCCn2c(C)nc3cc(C(F)(F)F)cc(C#N)c3c2=O)cc(C(=O)O)n1 [compound 410] | – | 50 to 1000 | 62.6
Cc1nc2cc(C(F)(F)F)cc(C#N)c2c(=O)n1CCOc1ccc(Cl)cc1-c1cc(C(=O)O)nc2ccsc12 [compound 201] | – | 50 to 1000 | 354
Cc1cc(-c2cc(Cl)ccc2OCCn2c(C)nc3c(C)nc(-c4cc(Cl)ccc4F)c(C#N)c3c2=O)c2scc(C(=O)O)c2n1 [compound 997] | – | < 50 | 12.2
O=C(O)c1cccc(-c2cc(Cl)ccc2OCCn2cnc3c(C(F)(F)F)nccc3c2=O)c1 [compound 1993] | 412 | – | –
